In article PMC10044120, “Potent and selective covalent inhibition of the papain-like protease from SARS-CoV-2” (Nature Communications, 2023):
Values joined by “and” are separate entries in the source; they are usually repeats but may differ in a detail not shown here. Equal values may be shown once. Read-outs that look alike come from different tables or passages of the source.

Key:
[1] = target: T1, PLpro from SARS-CoV-2 (Severe acute respiratory syndrome coronavirus 2, UniProt P0DTD1); experiment: biochemical; assay type: biochemical
[2] = target: T1, PLpro from SARS-CoV-2; experiment: biochemical; assay type: biochemical; parameters: mean (kobs plot, Supplementary Figure 6 II): unit: min^-1
[3] = target: PLpro (Severe acute respiratory syndrome coronavirus 2, UniProt P0DTD1); experiment: Intact protein ESI-MS to assess covalent adduct formation; assay type: binding, SARS-CoV-2; parameters: unit not given here
[4] = target: T2, SARS-CoV-2 PLpro (Severe acute respiratory syndrome coronavirus 2, UniProt P0DTD1); experiment: biochemical; details: PLpro 50 nM, Ub-rhodamine110
[5] = target: T2, SARS-CoV-2 PLpro; experiment: biochemical; details: PLpro 10 nM, ISG15-CHOP2
[6] = target: T3, USP30 (Homo sapiens, UniProt Q70CQ3); experiment: biochemical; details: USP30 10 nM, Ub-rhodamine110
T3 construct: purchased LifeSensors, Inc. (Malvern, PA)
T3 sequence (Q70CQ3 whole entry): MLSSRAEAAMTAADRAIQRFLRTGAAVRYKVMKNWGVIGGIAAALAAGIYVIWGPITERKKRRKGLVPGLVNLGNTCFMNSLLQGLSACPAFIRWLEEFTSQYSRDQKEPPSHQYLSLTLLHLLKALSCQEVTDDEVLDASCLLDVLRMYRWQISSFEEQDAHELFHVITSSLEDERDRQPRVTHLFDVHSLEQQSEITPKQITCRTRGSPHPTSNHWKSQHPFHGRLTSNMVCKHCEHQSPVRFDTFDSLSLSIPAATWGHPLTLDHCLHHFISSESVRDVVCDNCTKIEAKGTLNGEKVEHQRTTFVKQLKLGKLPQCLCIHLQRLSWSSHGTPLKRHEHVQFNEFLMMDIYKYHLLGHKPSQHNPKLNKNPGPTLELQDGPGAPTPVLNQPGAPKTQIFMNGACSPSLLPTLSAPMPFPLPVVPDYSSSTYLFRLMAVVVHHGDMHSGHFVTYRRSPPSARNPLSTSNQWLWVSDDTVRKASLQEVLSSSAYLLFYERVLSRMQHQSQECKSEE

[7] = target: T4, USP8 (Homo sapiens, UniProt P40818); experiment: biochemical; details: USP8 10 nM, Ub-rhodamine110
T4 construct: USP2c, USP4, USP7, USP8c, USP15, USP30WT, and UCH-L1; purchased LifeSensors, Inc. (Malvern, PA)
T4 sequence (P40818 777-1109): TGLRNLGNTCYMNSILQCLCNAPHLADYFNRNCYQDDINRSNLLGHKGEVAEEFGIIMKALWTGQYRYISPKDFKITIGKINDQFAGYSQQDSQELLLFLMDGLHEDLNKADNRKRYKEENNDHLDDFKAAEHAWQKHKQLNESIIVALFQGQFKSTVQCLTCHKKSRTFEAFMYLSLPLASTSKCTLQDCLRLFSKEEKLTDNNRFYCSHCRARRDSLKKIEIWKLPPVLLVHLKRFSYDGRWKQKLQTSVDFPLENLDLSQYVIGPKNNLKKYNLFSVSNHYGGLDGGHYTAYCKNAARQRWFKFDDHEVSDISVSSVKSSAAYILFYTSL

[8] = target: T5, USP7 (Homo sapiens, UniProt Q93009); experiment: biochemical; details: USP7 5 nM, Ub-CHOP2
T5 construct: purchased LifeSensors, Inc. (Malvern, PA)
T5 sequence (Q93009 whole entry): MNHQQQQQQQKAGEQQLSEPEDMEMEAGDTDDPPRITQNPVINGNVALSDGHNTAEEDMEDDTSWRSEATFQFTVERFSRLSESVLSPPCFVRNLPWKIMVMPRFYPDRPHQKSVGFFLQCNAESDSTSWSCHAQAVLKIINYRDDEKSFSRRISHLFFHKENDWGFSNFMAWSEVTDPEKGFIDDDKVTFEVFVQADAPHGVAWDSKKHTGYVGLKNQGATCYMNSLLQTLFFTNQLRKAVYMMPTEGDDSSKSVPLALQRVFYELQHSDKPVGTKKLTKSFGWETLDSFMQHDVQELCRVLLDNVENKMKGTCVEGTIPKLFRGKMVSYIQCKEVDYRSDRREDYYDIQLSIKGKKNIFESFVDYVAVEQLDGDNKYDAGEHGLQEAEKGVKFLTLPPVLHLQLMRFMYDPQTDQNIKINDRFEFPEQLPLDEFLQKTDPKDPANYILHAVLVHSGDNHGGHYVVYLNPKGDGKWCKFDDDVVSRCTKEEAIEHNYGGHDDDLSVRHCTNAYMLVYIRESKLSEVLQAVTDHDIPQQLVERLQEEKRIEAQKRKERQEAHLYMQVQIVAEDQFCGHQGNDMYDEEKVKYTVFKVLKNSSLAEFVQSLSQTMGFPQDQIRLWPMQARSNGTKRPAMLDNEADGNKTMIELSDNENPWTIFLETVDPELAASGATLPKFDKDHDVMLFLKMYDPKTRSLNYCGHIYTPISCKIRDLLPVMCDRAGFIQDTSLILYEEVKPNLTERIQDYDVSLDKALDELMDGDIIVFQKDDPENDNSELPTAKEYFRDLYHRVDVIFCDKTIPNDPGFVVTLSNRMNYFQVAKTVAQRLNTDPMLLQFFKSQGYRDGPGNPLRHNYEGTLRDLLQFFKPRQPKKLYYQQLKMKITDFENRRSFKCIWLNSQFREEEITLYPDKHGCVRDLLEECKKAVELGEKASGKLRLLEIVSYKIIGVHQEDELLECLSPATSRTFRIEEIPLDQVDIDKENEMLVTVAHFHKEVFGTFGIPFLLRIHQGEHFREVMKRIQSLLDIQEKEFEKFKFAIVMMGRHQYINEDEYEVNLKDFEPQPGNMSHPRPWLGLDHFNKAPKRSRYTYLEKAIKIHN

[9] = target: T6, UCHL1 (Homo sapiens, UniProt P09936); experiment: biochemical; details: UCHL1 10 nM, Ub-rhodamine110
T6 construct: purchased LifeSensors, Inc. (Malvern, PA)
T6 sequence (P09936 whole entry): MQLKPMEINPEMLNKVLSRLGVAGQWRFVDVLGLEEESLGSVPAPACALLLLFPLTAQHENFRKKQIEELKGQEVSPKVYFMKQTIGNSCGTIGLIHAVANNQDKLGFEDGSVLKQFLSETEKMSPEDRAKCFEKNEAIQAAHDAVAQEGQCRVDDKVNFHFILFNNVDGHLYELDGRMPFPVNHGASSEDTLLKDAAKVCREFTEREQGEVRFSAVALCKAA

[10] = tested on: SARS-CoV-2 isolate USA-WA1/2020; details: read-out: cytopathic effect, % cell viability, duplicate wells
[11] = tested on: SARS-CoV-2 isolate USA-WA1/2020; experiment: microbe, parasite or virus in culture
[12] = Metabolic stability in rat liver microsomes; details: Sprague-Dawley
[13] = Metabolic stability in rat liver S9 fraction; details: Sprague-Dawley
[14] = Metabolic stability in human liver microsomes
[15] = Metabolic stability in mouse liver microsomes; details: CD-1, mouse
[16] = Metabolic stability in human liver S9 fraction
[17] = Metabolic stability in mouse liver S9 fraction; details: CD-1, mouse

C[C@@H](NC(=O)c1ccccc1CCC(=O)NNC(=O)CCl)c1cccc2ccccc12 [Compound 9, (R)-2-(3-(2-(2-chloroacetyl)hydrazineyl)-3-oxopropyl)-N-(1-(naphthalen-1-yl)ethyl)benzamide]
remaining activity at 6.34 µM ([1]; 0.5 h, inhibitor 6.34 uM): 38.1% | remaining activity at 20 µM ([1]; 0.5 h, inhibitor 20.00 uM): 17.8% | IC50 ([1]; after 30-min incubation, purified PLpro, Z-RLRGG-AMC substrate): 5.4 µM | kinact/KI [2]: 110 M⁻¹ s⁻¹ | remaining activity at 1 µM ([2]; 5 min, read-out: PLpro activity after preincubation, inhibitor 1 uM, preincubation 5 min): 103% | remaining activity at 4 µM ([2]; 5 min, read-out: PLpro activity after preincubation, inhibitor 4 uM, preincubation 5 min): 97.6% | remaining activity at 5 µM ([2]; 5 min, read-out: PLpro activity after preincubation, inhibitor 5 uM, preincubation 5 min): 92.9% | remaining activity at 10 µM ([2]; 5 min, read-out: PLpro activity after preincubation, inhibitor 10 uM, preincubation 5 min): 78.5% | remaining activity at 15 µM ([2]; 5 min, read-out: PLpro activity after preincubation, inhibitor 15 uM, preincubation 5 min): 66.8% | remaining activity at 25 µM ([2]; 5 min, read-out: PLpro activity after preincubation, inhibitor 25 uM, preincubation 5 min): 57.8% | remaining activity at 30 µM ([2]; 5 min, read-out: PLpro activity after preincubation, inhibitor 30 uM, preincubation 5 min): 62% | remaining activity at 36 µM ([2]; 5 min, read-out: PLpro activity after preincubation, inhibitor 36 uM, preincubation 5 min): 57.3% | remaining activity at 1 µM ([2]; 10 min, read-out: PLpro activity after preincubation, inhibitor 1 uM, preincubation 10 min): 103% | remaining activity at 2 µM ([2]; 10 min, read-out: PLpro activity after preincubation, inhibitor 2 uM, preincubation 10 min): 93.2% | remaining activity at 5 µM ([2]; 10 min, read-out: PLpro activity after preincubation, inhibitor 5 uM, preincubation 10 min): 74% | remaining activity at 10 µM ([2]; 10 min, read-out: PLpro activity after preincubation, inhibitor 10 uM, preincubation 10 min): 53.4% | remaining activity at 15 µM ([2]; 10 min, read-out: PLpro activity after preincubation, inhibitor 15 uM, preincubation 10 min): 47.4% | remaining activity at 25 µM ([2]; 10 min, read-out: PLpro activity after preincubation, inhibitor 25 uM, preincubation 10 min): 38.1% | remaining activity at 30 µM ([2]; 10 min, read-out: PLpro activity after preincubation, inhibitor 30 uM, preincubation 10 min): 42.9% | remaining activity at 36 µM ([2]; 10 min, read-out: PLpro activity after preincubation, inhibitor 36 uM, preincubation 10 min): 38.6% | remaining activity at 2 µM ([2]; 20 min, read-out: PLpro activity after preincubation, inhibitor 2 uM, preincubation 20 min): 77.2% | remaining activity at 8 µM ([2]; 20 min, read-out: PLpro activity after preincubation, inhibitor 8 uM, preincubation 20 min): 39.6% | remaining activity at 1 µM ([2]; 0.5 h, read-out: PLpro activity after preincubation, inhibitor 1 uM, preincubation 30 min): 83.9% | remaining activity at 2 µM ([2]; 0.5 h, read-out: PLpro activity after preincubation, inhibitor 2 uM, preincubation 30 min): 68.5% | remaining activity at 4 µM ([2]; 0.5 h, read-out: PLpro activity after preincubation, inhibitor 4 uM, preincubation 30 min): 44.8% | remaining activity at 5 µM ([2]; 0.5 h, read-out: PLpro activity after preincubation, inhibitor 5 uM, preincubation 30 min): 40.6% | remaining activity at 8 µM ([2]; 0.5 h, read-out: PLpro activity after preincubation, inhibitor 8 uM, preincubation 30 min): 30.9% | remaining activity at 10 µM ([2]; 0.5 h, read-out: PLpro activity after preincubation, inhibitor 10 uM, preincubation 30 min): 31.6% | remaining activity at 15 µM ([2]; 0.5 h, read-out: PLpro activity after preincubation, inhibitor 15 uM, preincubation 30 min): 12.2% | remaining activity at 25 µM ([2]; 0.5 h, read-out: PLpro activity after preincubation, inhibitor 25 uM, preincubation 30 min): 10.3% | remaining activity at 30 µM ([2]; 0.5 h, read-out: PLpro activity after preincubation, inhibitor 30 uM, preincubation 30 min): 13.7% | remaining activity at 36 µM ([2]; 0.5 h, read-out: PLpro activity after preincubation, inhibitor 36 uM, preincubation 30 min): 12.5% | remaining activity at 1 µM ([2]; 1 h, read-out: PLpro activity after preincubation, inhibitor 1 uM, preincubation 60 min): 68.1% | remaining activity at 2 µM ([2]; 1 h, read-out: PLpro activity after preincubation, inhibitor 2 uM, preincubation 60 min): 42.3% | remaining activity at 4 µM ([2]; 1 h, read-out: PLpro activity after preincubation, inhibitor 4 uM, preincubation 60 min): 21.8% | remaining activity at 5 µM ([2]; 1 h, read-out: PLpro activity after preincubation, inhibitor 5 uM, preincubation 60 min): 16.1% | remaining activity at 8 µM ([2]; 1 h, read-out: PLpro activity after preincubation, inhibitor 8 uM, preincubation 60 min): 10.3% | remaining activity at 15 µM ([2]; 1 h, read-out: PLpro activity after preincubation, inhibitor 15 uM, preincubation 60 min): 7.87% | remaining activity at 25 µM ([2]; 1 h, read-out: PLpro activity after preincubation, inhibitor 25 uM, preincubation 60 min): 12.5% | remaining activity at 2 µM ([2]; 85 min, read-out: PLpro activity after preincubation, inhibitor 2 uM, preincubation 85 min): 29.8% | remaining activity at 2 µM ([2]; 110 min, read-out: PLpro activity after preincubation, inhibitor 2 uM, preincubation 110 min): 18% | remaining activity at 1 µM ([2]; […], read-out: PLpro activity after preincubation, inhibitor 1 uM, preincubation 15 min): 93.3% | remaining activity at 1 µM ([2]; […], read-out: PLpro activity after preincubation, inhibitor 1 uM, preincubation 45 min): 79.9% | remaining activity at 1 µM ([2]; […], read-out: PLpro activity after preincubation, inhibitor 1 uM, preincubation 90 min): 54% | remaining activity at 2 µM ([2]; […], read-out: PLpro activity after preincubation, inhibitor 2 uM, preincubation 45 min): 56.1% | remaining activity at 4 µM ([2]; […], read-out: PLpro activity after preincubation, inhibitor 4 uM, preincubation 15 min): 73.3% | remaining activity at 4 µM ([2]; […], read-out: PLpro activity after preincubation, inhibitor 4 uM, preincubation 45 min): 30.6% | remaining activity at 4 µM ([2]; […], read-out: PLpro activity after preincubation, inhibitor 4 uM, preincubation 90 min): 18.5% | remaining activity at 5 µM ([2]; […], read-out: PLpro activity after preincubation, inhibitor 5 uM, preincubation 15 min): 57.4% | remaining activity at 5 µM ([2]; […], read-out: PLpro activity after preincubation, inhibitor 5 uM, preincubation 45 min): 20.3% | remaining activity at 5 µM ([2]; […], read-out: PLpro activity after preincubation, inhibitor 5 uM, preincubation 90 min): 9.23% | remaining activity at 8 µM ([2]; […], read-out: PLpro activity after preincubation, inhibitor 8 uM, preincubation 45 min): 12.3% | remaining activity at 10 µM ([2]; […], read-out: PLpro activity after preincubation, inhibitor 10 uM, preincubation 15 min): 49.7% | remaining activity at 10 µM ([2]; […], read-out: PLpro activity after preincubation, inhibitor 10 uM, preincubation 45 min): 14.1% | remaining activity at 15 µM ([2]; […], read-out: PLpro activity after preincubation, inhibitor 15 uM, preincubation 15 min): 40.2% | remaining activity at 15 µM ([2]; […], read-out: PLpro activity after preincubation, inhibitor 15 uM, preincubation 45 min): 10.8% | remaining activity at 15 µM ([2]; […], read-out: PLpro activity after preincubation, inhibitor 15 uM, preincubation 90 min): 12.6% | remaining activity at 25 µM ([2]; […], read-out: PLpro activity after preincubation, inhibitor 25 uM, preincubation 15 min): 17.8% | remaining activity at 25 µM ([2]; […], read-out: PLpro activity after preincubation, inhibitor 25 uM, preincubation 90 min): 10.7% | remaining activity at 30 µM ([2]; […], read-out: PLpro activity after preincubation, inhibitor 30 uM, preincubation 15 min): 29.9% | remaining activity at 30 µM ([2]; […], read-out: PLpro activity after preincubation, inhibitor 30 uM, preincubation 45 min): 6.98% | remaining activity at 36 µM ([2]; […], read-out: PLpro activity after preincubation, inhibitor 36 uM, preincubation 15 min): 18% | remaining activity at 36 µM ([2]; […], read-out: PLpro activity after preincubation, inhibitor 36 uM, preincubation 45 min): 6.34% | Time dep. (time-dependent inhibition) ([2]; fluorogenic peptide assay, varied preincubation time): Yes | mean (kobs plot, Supplementary Figure 6 II) ([2]; inhibitor 1 uM): 0.0070 | mean (kobs plot, Supplementary Figure 6 II) ([2]; inhibitor 2 uM): 0.0147 | mean (kobs plot, Supplementary Figure 6 II) ([2]; inhibitor 4 uM): 0.0210 | mean (kobs plot, Supplementary Figure 6 II) ([2]; inhibitor 5 uM): 0.0344 | mean (kobs plot, Supplementary Figure 6 II) ([2]; inhibitor 8 uM): 0.0503 | mean (kobs plot, Supplementary Figure 6 II) ([2]; inhibitor 10 uM): 0.0558 | mean (kobs plot, Supplementary Figure 6 II) ([2]; inhibitor 13 uM): 0.0770 | mean (kobs plot, Supplementary Figure 6 II) ([2]; inhibitor 15 uM): 0.0658 | mean (kobs plot, Supplementary Figure 6 II) ([2]; inhibitor 25 uM): 0.0896 | mean (kobs plot, Supplementary Figure 6 II) ([2]; inhibitor 30 uM): 0.0802 | mean (kobs plot, Supplementary Figure 6 II) ([2]; inhibitor 36 uM): 0.0968 | Measured adduct mass [3]: 401 | Hill slope [4]: 0.705 | IC50 [4]: 1.96 µM | Hill slope [5]: 0.817 | IC50 [5]: 20.2 µM | IC50 [6]: > 30 µM | IC50 [7]: > 30 µM | IC50 [8]: > 30 µM | IC50 [9]: > 30 µM | inhibition ([10]; [inhibitor] 2.08 uM, 2.08 µM): 12% | inhibition ([10]; [inhibitor] 8.33 uM, 8.33 µM): 17.9% | inhibition ([10]; [inhibitor] 16.65 uM, 16.65 µM): 21% | EC50 ([11]; Severe acute respiratory syndrome coronavirus 2, Vero C1008, 48 h, read-out: EC50 (cytopathic effect)): 34 µM | inhibition at […] ([11]; Severe acute respiratory syndrome coronavirus 2, Vero C1008, read-out: cytopathic effect, % cell viability): 17.4% and 13.2% | inhibition at 2.08 µM ([11]; Severe acute respiratory syndrome coronavirus 2, Vero C1008, read-out: cytopathic effect, % cell viability, [inhibitor] 2.08 uM, duplicate wells): 10.7% | inhibition at 8.33 µM ([11]; Severe acute respiratory syndrome coronavirus 2, Vero C1008, read-out: cytopathic effect, % cell viability, [inhibitor] 8.33 uM, duplicate wells): 26.9% | inhibition at 16.65 µM ([11]; Severe acute respiratory syndrome coronavirus 2, Vero C1008, read-out: cytopathic effect, % cell viability, [inhibitor] 16.65 uM, duplicate wells): 19.8% | half-life [12]: 13 min | microsomal CLint [12]: 515 µL/min/mg | half-life [13]: 16 min | microsomal CLint [13]: 140 µL/min/mg | half-life [14]: 7 min | microsomal CLint [14]: 975 µL/min/mg | half-life [15]: 5 min | microsomal CLint [15]: 1330 µL/min/mg | half-life [16]: 3 min | microsomal CLint [16]: 689 µL/min/mg | half-life [17]: 4 min | microsomal CLint [17]: 544 µL/min/mg
